Test results reported in patent US6346549B1, “Treatment of pharmacology of drug misuse and other addictive disorders” (Knoll Pharmaceutical Company, priority 1999, dated 2002).

How the values were obtained:
[1] = target: T1, [3H]Noradenaline reuptake in rat brain tissue (Rattus norvegicus); test: in vitro [3H]noradrenaline reuptake inhibition in rat brain tissue; format: biochemical; settings: monoamine reuptake inhibition, means of ≧3 separate determinations
T1 construct: in rat brain tissue; from tissue; host or cells: rat brain tissue

[2] = target: [3H]Dopamine reuptake in rat brain tissue (Rattus norvegicus, UniProt P23977); test: biochemical
Sequence of [3H]Dopamine reuptake in rat brain tissue (P23977 whole entry): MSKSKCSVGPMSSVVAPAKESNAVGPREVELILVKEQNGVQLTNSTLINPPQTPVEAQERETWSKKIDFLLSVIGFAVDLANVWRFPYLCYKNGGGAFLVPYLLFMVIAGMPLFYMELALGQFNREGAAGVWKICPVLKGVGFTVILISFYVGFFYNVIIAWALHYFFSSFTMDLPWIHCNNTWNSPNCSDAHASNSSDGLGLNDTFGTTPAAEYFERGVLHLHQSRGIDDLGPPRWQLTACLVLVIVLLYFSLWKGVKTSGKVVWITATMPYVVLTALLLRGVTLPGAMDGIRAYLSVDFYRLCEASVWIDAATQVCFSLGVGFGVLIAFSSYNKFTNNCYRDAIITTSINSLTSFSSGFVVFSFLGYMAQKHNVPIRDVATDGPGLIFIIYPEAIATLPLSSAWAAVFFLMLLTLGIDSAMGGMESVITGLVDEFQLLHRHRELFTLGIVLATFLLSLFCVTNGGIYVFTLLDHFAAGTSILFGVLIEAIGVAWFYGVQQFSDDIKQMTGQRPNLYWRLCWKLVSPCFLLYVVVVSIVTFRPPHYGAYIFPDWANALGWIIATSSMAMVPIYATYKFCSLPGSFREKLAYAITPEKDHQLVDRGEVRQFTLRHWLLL

T1 sequence (Q63380 1-617): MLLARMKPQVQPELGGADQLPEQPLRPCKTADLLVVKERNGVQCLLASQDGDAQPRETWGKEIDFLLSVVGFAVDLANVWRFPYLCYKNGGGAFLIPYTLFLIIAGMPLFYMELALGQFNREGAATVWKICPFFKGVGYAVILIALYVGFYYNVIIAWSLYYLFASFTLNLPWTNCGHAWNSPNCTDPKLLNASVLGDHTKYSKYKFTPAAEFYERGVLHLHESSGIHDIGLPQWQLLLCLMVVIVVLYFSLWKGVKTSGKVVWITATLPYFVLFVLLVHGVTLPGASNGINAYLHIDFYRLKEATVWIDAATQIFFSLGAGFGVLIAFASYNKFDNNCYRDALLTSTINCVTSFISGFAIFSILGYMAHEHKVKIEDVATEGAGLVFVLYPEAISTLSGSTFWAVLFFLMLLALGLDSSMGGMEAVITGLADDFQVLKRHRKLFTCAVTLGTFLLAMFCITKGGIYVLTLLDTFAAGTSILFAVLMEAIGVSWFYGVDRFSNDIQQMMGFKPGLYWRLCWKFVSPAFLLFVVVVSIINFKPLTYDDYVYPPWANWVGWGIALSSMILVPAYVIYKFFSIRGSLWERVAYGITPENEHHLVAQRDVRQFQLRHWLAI

CC(NC(C)(C)C)C(=O)c1cccc(Cl)c1 (centres unmarked) [Bupropion]
Ki [1]: 2590 nM
Ki [2]: 409 nM
